Experimental data: patent publication US11590139B2, “Substituted aminopurine compounds, compositions thereof, and methods of treatment therewith” (Signal Pharmaceuticals, LLC, priority 2014, dated 2023)
pIC50: −log10 of the molar value.

Test system: Lox-IMVI melanoma cell line
Assay: Lox-IMVI anti-proliferative assay (growth inhibition, Cell Titer-Glo)
Assay type: cell-based, human
Conditions: Homo sapiens; Lox-IMVI anti-proliferative assay, IC50 activity level; read-out: Activity
Outline: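 Cells grown in RPMI + 10% FBS were exposed to compound at 0.5 nM to 10 μM (10-point, 3-fold dilution, duplicate, 0.2% DMSO final) for 72 h at 37 °C, 5% CO2. Viability was read by ATP luminescence at t0 and 72 h. IC50 came from a four-parameter logistic fit normalized to DMSO control.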

Structure (SMILES)	pIC50
C[C@]1(C(N)=O)CC[C@@H](n2c(Nc3c(Cl)cc(F)cc3Cl)nc3cnc(NC4CC(F)(F)C4)nc32)CC1 [Example 582, (1s,4s)-4-(8-(2,6-dichloro-4-fluorophenylamino)-2-(3,3-difluorocyclobutylamino)-9H-purin-9-yl)-1-methylcyclohexanecarboxamide]	> 6.60
C[C@]1(C(N)=O)CC[C@@H](n2c(Nc3c(F)cc(C#N)cc3Cl)nc3cnc(NC4CC(F)(F)C4)nc32)CC1 [Example 583, (1s,4s)-4-(8-(2-chloro-4-cyano-6-fluorophenylamino)-2-(3,3-difluorocyclobutylamino)-9H-purin-9-yl)-1-methylcyclohexanecarboxamide]	> 6.60
C[C@]1(C(N)=O)CC[C@@H](n2c(Nc3c(Cl)cc(C(F)(F)F)cc3Cl)nc3cnc(NC4CC(F)(F)C4)nc32)CC1 [Example 584, (1s,4s)-4-(8-(2,6-dichloro-4-(trifluoromethyl)phenylamino)-2-(3,3-difluorocyclobutylamino)-9H-purin-9-yl)-1-methylcyclohexanecarboxamide]	< 6.00
NC(=O)[C@H]1CC[C@@H](n2c(Nc3c(Cl)cc(F)cc3Cl)nc3cnc(N[C@H]4CCC(F)(F)C4)nc32)CC1 [Example 585, (1R,4s)-4-(8-(2,6-dichloro-4-fluorophenylamino)-2-((S)-3,3-difluorocyclopentylamino)-9H-purin-9-yl)cyclohexanecarboxamide]	6.00 to 6.30
NC(=O)[C@H]1CC[C@@H](n2c(Nc3c(Cl)cc(F)cc3Cl)nc3cnc(N[C@@H]4CCC(F)(F)C4)nc32)CC1 [Example 586, (1S,4s)-4-(8-(2,6-dichloro-4-fluorophenylamino)-2-((R)-3,3-difluorocyclopentylamino)-9H-purin-9-yl)cyclohexanecarboxamide]	> 6.60
NC(=O)[C@H]1CC[C@@H](n2c(Nc3c(F)cc(Cl)cc3F)nc3cnc(N[C@H]4CCC(F)(F)C4)nc32)CC1 [Example 587, (1R,4s)-4-(8-(4-chloro-2,6-difluorophenylarnino)-2-((S)-3,3-difluorocyclopentylamino)-9H-purin-9-yl)cyclohexanecarboxamide]	6.30 to 6.60
NC(=O)[C@H]1CC[C@@H](n2c(Nc3c(F)cc(Cl)cc3F)nc3cnc(N[C@@H]4CCC(F)(F)C4)nc32)CC1 [Example 588, (1S,4s)-4-(8-(4-chloro-2,6-difluorophenylamino)-2-((R)-3,3-difluorocyclopentylamino)-9H-purin-9-yl)cyclohexanecarboxamide]	> 6.60
NC(=O)[C@H]1CC[C@@H](n2c(Nc3c(F)cc(F)cc3Cl)nc3cnc(N[C@H]4CCC(F)(F)C4)nc32)CC1 [Example 589, (1R,4s)-4-(8-(2-chloro-4,6-difluorophenylamino)-2-((S)-3,3-difluorocyclopentylamino)-9H-purin-9-yl)cyclohexanecarboxamide]	6.30 to 6.60
NC(=O)[C@H]1CC[C@@H](n2c(Nc3c(F)cc(F)cc3Cl)nc3cnc(N[C@@H]4CCC(F)(F)C4)nc32)CC1 [Example 590, (1S,4s)-4-(8-(2-chloro-4,6-difluorophenylamino)-2-((R)-3,3-difluorocyclopentylamino)-9H-purin-9-yl)cyclohexanecarboxamide]	> 6.60
NC(=O)[C@H]1CC[C@@H](n2c(Nc3c(F)cc(Cl)cc3Cl)nc3cnc(N[C@H]4CCC(F)(F)C4)nc32)CC1 [Example 591, (1R,4s)-4-(8-(2,4-dichloro-6-fluorophenylamino)-2-((S)-3,3-difluorocyclopentylamino)-9H-purin-9-yl)cyclohexanecarboxamide]	6.30 to 6.60
NC(=O)[C@H]1CC[C@@H](n2c(Nc3c(F)cc(Cl)cc3Cl)nc3cnc(N[C@@H]4CCC(F)(F)C4)nc32)CC1 [Example 592, (1S,4s)-4-(8-(2,4-dichloro-6-fluorophenylamino)-2-((R)-3,3-difluorocyclopentylamino)-9H-purin-9-yl)cyclohexanecarboxamide]	> 6.60
